# Test results taken from ChEMBL document CHEMBL3108691, “Structural investigation of cycloheptathiophene-3-carboxamide derivatives targeting influenza virus polymerase assembly” (J Med Chem, 2013).
# Tests used:
# [1] = Cytotoxicity against MDCK cells assessed as cell viability after 48 hrs by MTT assay; format: cell-based, Canis lupus familiaris; conditions: dog
# [2] = Cytotoxicity against HEK293 cells assessed as cell viability after 24 hrs by MTT assay; format: cell-based; conditions: human
# Influenza A virus [3] = format: functional, organism-based; conditions: A/Puerto Rico/8/1934(H1N1), MDCK, 48 h
# [4] = biological target: PA/PB1 (Influenza A virus (A/Puerto Rico/8/1934(H1N1)), UniProt P03431+P03433); assay: Inhibition of Influenza A virus (A/Puerto Rico/8/34(H1N1)) His6-tagged PA (239 to 716) interaction with GST-tagged PB1 (1 to 25) expressed in Escherichia coli BL21 (DE3) by ELISA
# Influenza A virus [5] = format: functional, organism-based; conditions: A/Puerto Rico/8/1934(H1N1), MDCK, 12 h
# cells = conditions: Influenza A virus, HEK293, 24 h
# Influenza A virus [6] = format: functional, organism-based, Influenza A virus (A/Wisconsin/67/2005(H3N2)); conditions: MDCK, 48 h
# Influenza A virus [7] = format: functional, organism-based; conditions: A/Padova/253/2011(H1N1), MDCK, 48 h
# Influenza A virus [8] = format: functional, organism-based; conditions: A/Padova/72/2011(H1N1), MDCK, 48 h
# Influenza A virus [9] = format: functional, organism-based; conditions: A/Padova/30/2011(H1N1), MDCK, 48 h
# Influenza B virus = assay: microbe, parasite or virus in culture; conditions: B/Lee/1940, MDCK, 48 h
smiles,measurement,setting,value
O=C(Nc1sc2c(c1C(=O)O)CCCCC2)c1ccccc1F,CC50 at 48 h,[1],> 250 µM
same,CC50 at 24 h,[2],> 250 µM
same,EC50,Influenza A virus [3],76 µM
same,IC50,[4],200 µM
NC(=O)c1c(NC(=O)c2ccccc2F)sc2c1CCCC2,CC50 at 48 h,[1],118 µM
same,CC50 at 24 h,[2],31 µM
same,EC50,Influenza A virus [3],> 100 µM
same,IC50,[4],> 200 µM
O=C(Nc1sc2c(c1C(=O)O)CCC2)c1ccccc1F,CC50 at 48 h,[1],> 250 µM
same,CC50 at 24 h,[2],> 250 µM
same,EC50,Influenza A virus [3],77 µM
same,IC50,[4],159 µM
CCOC(=O)c1c(NC(=O)c2ccc(OC)cc2)sc2c1CCCCC2,CC50 at 48 h,[1],> 250 µM
same,CC50 at 24 h,[2],> 250 µM
same,EC50,Influenza A virus [3],95 µM
same,IC50,[4],> 200 µM
NC(=O)c1c(NC(=O)c2ccccc2F)sc2c1CCC2,IC50,[4],> 200 µM
CCOC(=O)c1c(NC(=O)c2ccccc2F)sc2c1CCCCC2,CC50 at 48 h,[1],> 250 µM
same,CC50 at 24 h,[2],> 250 µM
same,EC50,Influenza A virus [3],78 µM
same,IC50,[4],200 µM
CCOC(=O)c1c(NC(=O)c2ccc(F)cc2)sc2c1CCCCC2,CC50 at 48 h,[1],> 250 µM
same,CC50 at 24 h,[2],> 250 µM
same,EC50,Influenza A virus [3],91 µM
same,IC50,[4],> 200 µM
CCOC(=O)c1c(NC(=O)c2ccccc2Cl)sc2c1CCCCC2,CC50 at 48 h,[1],> 250 µM
same,CC50 at 24 h,[2],> 250 µM
same,EC50,Influenza A virus [3],94 µM
same,IC50,[4],> 200 µM
CCOC(=O)c1c(NC(=O)c2ccc(Cl)cc2)sc2c1CCCCC2,CC50 at 48 h,[1],> 250 µM
same,CC50 at 24 h,[2],> 250 µM
same,EC50,Influenza A virus [3],89 µM
same,IC50,[4],> 200 µM
O=C(Nc1sc2c(c1C(=O)O)CCCCC2)c1ccc(F)cc1,IC50,[4],> 200 µM
O=C(Nc1sc2c(c1C(=O)O)CCCCC2)c1ccccc1Cl,IC50,[4],> 200 µM
O=C(Nc1sc2c(c1C(=O)O)CCCCC2)c1ccc(Cl)cc1,IC50,[4],> 200 µM
COc1ccc(C(=O)Nc2sc3c(c2C(=O)O)CCCCC3)cc1,IC50,[4],> 200 µM
O=C(Nc1sc2c(c1C(=O)Nc1ccccn1)CCCC2)c1ccccc1F,IC50,[4],> 200 µM
O=C(Nc1sc2c(c1C(=O)Nc1ccccn1)CCC2)c1ccccc1F,IC50,[4],> 200 µM
CCOC(=O)c1c(NC(=O)c2ccccc2F)sc2c1CCC2,CC50 at 48 h,[1],> 250 µM
same,CC50 at 24 h,[2],> 250 µM
same,EC50,Influenza A virus [3],> 100 µM
same,IC50,[4],> 200 µM
CSCC[C@H](N)C(=O)N[C@@H](CC(=O)O)C(=O)N[C@H](C(=O)N[C@@H](CC(N)=O)C(=O)N1CCC[C@H]1C(=O)N[C@H](C(=O)N[C@@H](CC(C)C)C(=O)N[C@@H](CC(C)C)C(=O)N[C@@H](Cc1ccccc1)C(=O)N[C@@H](CC(C)C)C(=O)N[C@@H](CCCCN)C(=O)N[C@H](C(=O)N1CCC[C@H]1C(=O)N[C@@H](C)C(=O)N[C@@H](CCC(N)=O)C(=O)O)C(C)C)[C@@H](C)O)C(C)C,CC50 at 48 h,[1],> 100 µM
same,CC50 at 24 h,[2],> 100 µM
same,EC50,Influenza A virus [3],40 µM
same,IC50,[4],35 µM
O=C(Nc1sc2c(c1C(=O)Nc1ccccn1)CCCCC2)c1ccccc1,IC50,[4],87 µM
O=C(Nc1sc2c(c1C(=O)Nc1ccccn1)CCCCC2)c1cccc(F)c1,IC50,[4],> 200 µM
O=C(Nc1sc2c(c1C(=O)Nc1ccccn1)CCCCC2)c1ccc(F)cc1,IC50,[4],99 µM
O=C(Nc1sc2c(c1C(=O)Nc1ccccn1)CCCCC2)c1ccccc1Cl,IC50,[4],134 µM
O=C(Nc1sc2c(c1C(=O)Nc1ccccn1)CCCCC2)c1ccc(Cl)cc1,IC50,[4],32 µM
O=C(Nc1sc2c(c1C(=O)Nc1ccccn1)CCCCC2)c1ccc(F)cc1Cl,IC50,[4],> 200 µM
O=C(Nc1sc2c(c1C(=O)Nc1ccccn1)CCCCC2)c1ccc(Cl)cc1Cl,IC50,[4],> 200 µM
O=C(Nc1ccccn1)c1c(NC(=O)C2CCCCC2)sc2c1CCCCC2,IC50,[4],> 200 µM
O=C(Cc1ccc(F)cc1)Nc1sc2c(c1C(=O)Nc1ccccn1)CCCCC2,CC50 at 48 h,[1],> 250 µM
same,CC50 at 24 h,[2],250 µM
same,EC50,Influenza A virus [3],16 µM
same,IC50,[4],> 200 µM
O=C(Cc1ccc(Cl)cc1)Nc1sc2c(c1C(=O)Nc1ccccn1)CCCCC2,CC50 at 48 h,[1],> 250 µM
same,CC50 at 24 h,[2],> 250 µM
same,EC50,Influenza A virus [3],19 µM
same,IC50,[4],> 200 µM
O=C(Cc1ccccc1)Nc1sc2c(c1C(=O)Nc1ccccn1)CCCCC2,CC50 at 48 h,[1],> 250 µM
same,CC50 at 24 h,[2],220 µM
same,EC50,Influenza A virus [3],19 µM
same,IC50,[4],> 200 µM
O=C(CCc1ccc(F)cc1)Nc1sc2c(c1C(=O)Nc1ccccn1)CCCCC2,IC50,[4],> 200 µM
O=C(CC1CCCCC1)Nc1sc2c(c1C(=O)Nc1ccccn1)CCCCC2,IC50,[4],> 200 µM
O=C(CCc1ccc(Cl)cc1)Nc1sc2c(c1C(=O)Nc1ccccn1)CCCCC2,IC50,[4],> 200 µM
O=C(CCc1ccccc1)Nc1sc2c(c1C(=O)Nc1ccccn1)CCCCC2,IC50,[4],> 200 µM
O=C(Cc1ccc2ncccc2c1)Nc1sc2c(c1C(=O)Nc1ccccn1)CCCCC2,CC50 at 48 h,[1],> 250 µM
same,CC50 at 24 h,[2],> 250 µM
same,EC50,Influenza A virus [3],58 µM
same,IC50,[4],48 µM
COc1c(CC(=O)Nc2sc3c(c2C(=O)Nc2ccccn2)CCCCC3)sc2ccccc12,EC50,Influenza A virus [5],6 µM
same,CC50 at 48 h,[1],> 250 µM
same,CC50 at 24 h,[2],> 250 µM
same,EC50,Influenza A virus [3],61 µM
same,IC50,[4],90 µM
same,EC50,cells,> 100 µM
Nc1sc2c(c1C(=O)Nc1ccccn1)CCCCC2,IC50,[4],35 µM
NC(=O)c1c(NC(=O)c2ccccc2F)sc2c1CCCCC2,IC50,[4],> 200 µM
NC(=O)c1ncn([C@@H]2O[C@H](CO)[C@@H](O)[C@H]2O)n1 [RIBAVIRIN],EC50,Influenza A virus [6],12 µM
same,EC50,Influenza A virus [7],11 µM
same,EC50,Influenza A virus [8],6 µM
same,EC50,Influenza A virus [9],7 µM
same,EC50,Influenza A virus [5],2 µM
same,CC50 at 48 h,[1],> 250 µM
same,CC50 at 24 h,[2],> 250 µM
same,EC50,Influenza A virus [3],8 µM
same,EC50,cells,15 µM
same,EC50,Influenza B virus,6 µM
